Data published in US7041698B2, “Hepatitis C virus inhibitors” (Bristol-Myers Squibb Company, priority 2002, dated 2006).
Where two headings read alike, the source gives them in different places.

Key:
[1] = target: T1, HCV NS3/4A protease complex (UniProt P27958, C1454S/C1711G, species not given); experiment: Recombinant HCV NS3/4A protease complex FRET peptide assay (strain not stated); type: biochemical
T1 construct: fused on or other part: Three-lysine solubilising tail at the C-terminus of NS4A
From the text: Recombinant HCV NS3/4A Protease Complex FRET Peptide Assay
The purpose of this in vitro assay was to measure the inhibition of HCV NS3 protease complexes, derived from the BMS, H77C or J416S strains, as described below, by compounds of the present invention. This assay provides an indication of how effective compounds of the present invention would be in inhibiting HCV proteolytic activity.
Serum from an HCV-infected patient was obtained from Dr. T. Wright, San Francisco Hospital. An engineered full-length cDNA (compliment deoxyribonucleic acid) template of the HCV genome (BMS strain) was constructed from DNA fragments obtained by reverse transcription-PCR (RT-PCR) of serum RNA (ribonucleic acid) and using primers selected on the basis of homology between other genotype 1a strains. From the determination of the entire genome sequence, a genotype 1a was assigned to the HCV isolate according to the classification of Simmonds et al. (See P Simmonds, K A Rose, S Graham, S W Chan, F McOmish, B C Dow, E A Follett, P L Yap and H Marsden, J. Clin. Microbiol., 31(6), 1493–1503 (1993)). […] The infectious clones, H77C (1a genotype) and J4L6S (1b genotype) were obtained from R. Purcell (NIH) and the sequences are published in Genbank (AAB67036, see Yanagi, M., Purcell, R. H., Emerson, S. U. and Bukh, J. Proc. Natl. Acad. Sci. U.S.A. 94(16),8738–8743 (1997); AF054247, see Yanagi, M., St Claire, M., Shapiro, M., Emerson, S. U., Purcell, R. H. and Bukh, J, Virology 244 (1), 161–172. (1998)).
The BMS, H77C and J4L6S strains were used for production of recombinant NS3/4A protease complexes. DNA encoding the recombinant HCV NS3/4A protease complex (amino acids 1027 to 1711) for these strains were manipulated as described by P. Gallinari et al. (see Gallinari P, Paolini C, Brennan D, Nardi C, Steinkuhler C, De Francesco R. Biochemistry. 38(17):5620–32, (1999)). Briefly, a three-lysine solubilizing tail was added at the 3′-end of the NS4A coding region. The cysteine in the P1 position of the NS4A-NS4B cleavage site (amino acid 1711) was changed to a glycine to avoid the proteolytic cleavage of the lysine tag. Furthermore, a cysteine to serine mutation was introduced by PCR at amino acid position 1454 to prevent the autolytic cleavage in the NS3 helicase domain. The variant DNA fragment was cloned in the pET21b bacterial expression vector (Novagen) and the NS3/4A complex was expressed in Escherichia. coli strain BL21 (DE3) (Invitrogen) following the protocol described by P. Gallinari et al. (see Gallinari P, Brennan D, Nardi C, Brunetti M, Tomei L, Steinkuhler C, De Francesco R., J. Virol. 72(8):6758–69 (1998)) with modifications. Briefly, NS3/4A expression was induced with 0.5 mM Isopropyl β-D-1-thiogalactopyranoside (IPTG) for 22 hr at 20° C. A typical fermentation (10L) yielded approximately 80 g of wet cell paste. The cells were resuspended in lysis buffer (10 mL/g) consisting of 25 mM N-(2-Hydroxyethyl)Piperazine-N′-(2-Ethane Sulfonic acid) (HEPES), pH7.5, 20% glycerol, 500 mM Sodium Chloride (NaCl), 0.5% Triton-X100, 1 ug/ml lysozyme, 5 mM Magnesium Chloride (MgCl2), lug/ml Dnasel, 5 mM β-Mercaptoethanol (βME), Protease inhibitor—Ethylenediamine Tetraacetic acid (EDTA) free (Roche), homogenized and incubated for 20 mins at 4° C. The homogenate was sonicated and clarified by ultra-centrifugation at 235000 g for 1 hr at 4° C. Imidazole was added to the supernatant to a final concentration of 15 mM and the pH adjusted to 8.0. The crude protein extract was loaded on a Nickel-Nitrilotriacetic acid (Ni-NTA) column pre-equilibrated with buffer B (25 mM HEPES, pH 8.0, 20% glycerol, 500 mM NaCl, 0.5% Triton-X100, 15 mM imidazole, 5 mM βME). The sample was loaded at a flow rate of 1 mL/min. The column was washed with 15 column volumes of buffer C (same as buffer B except with 0.2% Triton-X100). The protein was eluted with 5 column volumes of buffer D (same as buffer C except with 200 mM Imidazole). […]

[2] = tested on: HCV replicon in Huh7 cells; experiment: HCV replicon cell-based assay; parameters: species or system HCV strain 1B; conditions: HCV replicon, 4 days, read-out: EC50 range
From the text: HCV Replicon Cell-based Assay
An HCV replicon whole cell system was established as described by Lohmann V, Komer F, Koch J, Herian U, Theilmann L, Bartenschlager R., Science 285(5424):110–3 (1999). This system enabled us to evaluate the effects of our HCV Protease compounds on HCV RNA replication. Briefly, using the HCV strain 1B sequence described in the Lohmann paper (Assession number:AJ238799), an HCV cDNA was generated encoding the 5′ internal ribosome entry site (IRES), the neomycin resistance gene, the EMCV (encephalomyocarditis viurs)-IRES and the HCV nonstructural proteins, NS3-NS5B, and 3′ non-translated region (NTR). In vitro transcripts of the cDNA were transfected into the human hepatoma cell line, Huh7. […] Resulting cell lines were characterized for positive and negative strand RNA production and protein production over time.
Huh7 cells, constitutively expressing the HCV replicon, were grown in Dulbecco's Modified Eagle Media (DMEM) containing 10% Fetal calf serum (FCS) and 1 mg/ml G418 (Gibco-BRL). Cells were seeded the night before (1.5×10^4 cells/well) in 96-well tissue-culture sterile plates. Compound and no compound controls were prepared in DMEM containing 4% FCS, 1:100 Penicillin/Streptomysin, 1:100 L-glutamine and 5% DMSO in the dilution plate (0.5% DMSO final concentration in the assay). Compound/DMSO mixes were added to the cells and incubated for 4 days at 37° C. After 4 days, plates were rinsed thoroughly with Phosphate-Buffered Saline (PBS) (3 times 150 μl). The cells were lysed with 25 μl of a lysis assay reagent containing the FRET peptide (RET S1, as described for the in vitro enzyme assay). The lysis assay reagent was made from 5× cell Luciferase cell culture lysis reagent (Promega #E153A) diluted to 1× with distilled water, NaCl added to 150 mM final, the FRET peptide diluted to 10 μM final from a 2 mM stock in 100% DMSO. The plate was then placed into the Cytofluor 4000 instrument which had been set to 340 nm excitation/490 emission, automatic mode for 21 cycles and the plate read in a kinetic mode. EC50 determinations were carried out as described for the IC50 determinations.
As a secondary assay, EC50 determinations from the replicon FRET assay were confirmed in a quantitative RNA assay. Cells were lyzed using the Rneasy kit (Qiagen). Purified total RNA was normalized using RiboGreen (Jones L J, Yue S T, Cheung C Y, Singer V L, Anal. Chem., 265(2):368–74 (1998)) and relative quantitation of HCV RNA expression assessed using the Taqman procedure (Kolykhalov A A, Mihalik K, Feinstone S M, Rice C M, Journal of Virology 74, 2046–2051 (2000)) and the Platinum Quantitative RT-PCR Thermoscript One-Step kit (Invitrogen cat # 11731-015). Briefly, RNA made to a volume of 5 μl (<1 ng) was added to a 20 μl Ready-Mix containing the following: 1.25× Thermoscript reaction mix (containing Magnesium Sulfate and 2-deoxynucleoside 5′-triphosphates (dNTPs)), 3 mM dNTPs, 200 nM forward primer (sequence: 5′-[…]-3′), 600 nM reverse primer (5′-[…]-3′), 100 nM probe (5′-6-FAM-[…]-BHQ-1-3′)(FAM: Fluorescein-aminohexyl amidite; BHQ: Black Hole Quencher), 1 μM Rbx reference dye (Invitrogen cat # 12223-012) and Thermoscript Plus Platinum Taq polymerase mixture. All primers were designed with ABI Prism 7700 software and obtained from Biosearch Technologies, Novato, Calif. Samples containing known concentrations of HCV RNA transcript were run as standards. Using the following cycling protocol (50° C., 30 min; 95° C., 5 min; 40 cycles of 95° C., 15 sec, 60° C., 1 min), HCV RNA expression was quantitated as described in the Perkin Elmer manual using the ABI Prism 7700 Sequence Detector.
The luciferase reporter assay was also used to confirm compound potency in the replicon. Utilization of a replicon luciferase reporter assay was first described by Krieger et al (Krieger N, Lohmann V, and Bartenschlager R, J. Virol. 75(10):4614–4624 (2001)). […]

[3] = HCV NS3/4A protease enzyme assay, read-out: IC50 range

Structure (SMILES)	IC50 [1, 3]	EC50 [2]	EC50 ([2]; Hepatitis C virus, Huh-7, 96 h)	IC50 ([1]; read-out: IC50 range, HCV NS3/4A protease enzyme assay)
C=CC1C[C@]1(NC(=O)[C@@H]1C[C@@H](OC(=O)Nc2ccccc2/C(=N/O)c2ccccc2)CN1C(=O)[C@@H](NC(=O)OC(C)(C)C)C(C)(C)C)C(=O)NS(=O)(=O)C1CC1 (single isomer, unassigned) [Compound 77a]	100 to 1000 nM	1000 to 10000 nM		
C=CC1C[C@]1(NC(=O)[C@@H]1C[C@@H](OC(=O)Nc2ccccc2/C(=N/O)c2ccccc2)CN1C(=O)[C@@H](NC(=O)OC(C)(C)C)C(C)(C)C)C(=O)NS(=O)(=O)C1CC1 (single isomer, unassigned) [Compound 77b]	100 to 1000 nM	> 10000 nM		
C=CC1C[C@]1(NC(=O)[C@@H]1C[C@@H](OC(=O)N(C)c2ccccc2)CN1C(=O)[C@@H](NC(=O)OC(C)(C)C)C(C)(C)C)C(=O)NS(=O)(=O)C1CC1 (stereo partly drawn) [Compound 1, BocNH-P3(t-BuGly)-P2(Hyp(O—CO(N-methyl,N-phenyl)))-P1(1R,2S VinylAcca)—CONHSO2Cyclopropane]	100 to 1000 nM		1000 to 10000 nM	
C=CC1C[C@]1(NC(=O)[C@@H]1C[C@@H](OC(=O)NCc2ccccc2C)CN1C(=O)[C@@H](NC(=O)OC(C)(C)C)C(C)(C)C)C(=O)NS(=O)(=O)C1CC1 (stereo partly drawn) [Compound 2, BocNH-P3(t-BuGly)-P2(Hyp(O—CO(NH—(2-methylbenzyl))))-P1(1R,2S VinylAcca)—CONHSO2Cyclopropane]	100 to 1000 nM		1000 to 10000 nM	
C=CC1C[C@]1(NC(=O)[C@@H]1C[C@@H](OC(=O)N[C@@H]2C[C@H]2c2ccccc2)CN1C(=O)[C@@H](NC(=O)OC(C)(C)C)C(C)(C)C)C(=O)NS(=O)(=O)C1CC1 (stereo partly drawn) [Compound 3, BocNH-P3(t-BuGly)-P(Hyp(O—CO(NH-2(trans)-phenylcyclopropyl)))-P1(1R,2S VinylAcca)—CONHSO2Cyclopropane]	< 100 nM		1000 to 10000 nM	
C=CC1C[C@]1(NC(=O)[C@@H]1C[C@@H](OC(=O)N2CCOCC2)CN1C(=O)[C@@H](NC(=O)OC(C)(C)C)C(C)(C)C)C(=O)NS(=O)(=O)C1CC1 (stereo partly drawn) [Compound 4, BocNH-P3(t-BuGly)-P2(Hyp(O—CO—(4-morpholino)))-P1(1R,2S VinylAcca)—CONHSO2Cyclopropane]	100 to 1000 nM		> 10000 nM	
C=CCN(CC=C)C(=O)O[C@@H]1C[C@@H](C(=O)N[C@]2(C(=O)NS(=O)(=O)C3CC3)CC2C=C)N(C(=O)[C@@H](NC(=O)OC(C)(C)C)C(C)(C)C)C1 (stereo partly drawn) [Compound 5, BocNH-P3(t-BuGly)-P2(Hyp(O—CO(N,N-diallyl)))-P1(1R,2S VinylAcca)—CONHSO2Cyclopropane]	100 to 1000 nM		1000 to 10000 nM	
C=CC1C[C@]1(NC(=O)[C@@H]1C[C@@H](OC(=O)NC2CCCCC2)CN1C(=O)[C@@H](NC(=O)OC(C)(C)C)C(C)(C)C)C(=O)NS(=O)(=O)C1CC1 (stereo partly drawn) [Compound 6, BocNH-P3(t-BuGly)-P2(Hyp(O—CO(NH-cyclohexyl)))-P1(1R,2S VinylAcca)—CONHSO2Cyclopropane]	< 100 nM		1000 to 10000 nM	
C=CC1C[C@]1(NC(=O)[C@@H]1C[C@@H](OC(=O)NCCc2ccccc2)CN1C(=O)[C@@H](NC(=O)OC(C)(C)C)C(C)(C)C)C(=O)NS(=O)(=O)C1CC1 (stereo partly drawn) [Compound 7, BocNH-P3(t-BuGly)-P2(Hyp(O—CO(NH-phenethyl)))-P1(1R,2S VinylAcca)—CONHSO2Cyclopropane]			1000 to 10000 nM	100 to 1000 nM
C=CC1C[C@]1(NC(=O)[C@@H]1C[C@@H](OC(=O)Nc2cc(Cl)ccc2OC)CN1C(=O)[C@@H](NC(=O)OC(C)(C)C)C(C)(C)C)C(=O)NS(=O)(=O)C1CC1 (stereo partly drawn) [Compound 9, BocNH-P3(t-BuGly)-P2(Hyp(O—CO(NH—(5-chloro-2-methoxy-phenyl))))-P1(1R,2S VinylAcca)—CONHSO2Cyclopropane]	< 100 nM		100 to 1000 nM	
C=CC1C[C@]1(NC(=O)[C@@H]1C[C@@H](OC(=O)Nc2ccc3c(c2)OCO3)CN1C(=O)[C@@H](NC(=O)OC(C)(C)C)C(C)(C)C)C(=O)NS(=O)(=O)C1CC1 (stereo partly drawn) [Compound 10, BocNH-P3(t-BuGly)-P2(Hyp(O—CO(NH-Benzo[1,3]dioxol-5-yl)))-P1(1R,2S VinylAcca)—CONHSO2Cyclopropane]	100 to 1000 nM		> 10000 nM	
